Like-named read-outs stand apart in the source and are kept apart here.

One test deals with SCD1. Nature of the test: Measurement of SCD1 expression in SZ95-SCD1-HiBit cells (HiBiT assay). Format: cell-based. The settings on record: Homo sapiens, 48 h; for EC50: read-out: HiBit EC50.
The next test relates to SZ95 sebocytes. Nature of the test: Sentinel Lipid Assay (SLA), desaturation index in SZ95 sebocytes. Format: cell-based. As to conditions: Homo sapiens, 72 h; for EC50: read-out: SLA EC50. The method, boiled down: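 SZ95 human sebocytes on fibronectin-coated plates, dosed 72 h at 37 °C with 1:3 dilutions from 10 μM; lipids extracted with deuterated triglyceride internal standards and quantified by LC-MS/MS (MRM) as 11 sentinel lipids. Desaturation index from elastic-net coefficients, normalized to DMSO; Amax relative to a reference LXR agonist.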

Where [1] appears, read: normalized Amax based on the reference compound Amax of 100%, read-out: HiBit Normalized Amax.
Setting [2] is: SZ95-SCD1-HiBit cells, SCD1 protein production, luminescence, initial dilution 1:3 in DMSO.
The mark [3] stands for this setting: SZ95-SCD1-HiBit cells, compared to reference compound, read-out: HiBit Amax.
Setting [4] is: normalized Amax based on the reference compound Amax of 100%, read-out: SLA Normalized Amax.
[5] abbreviates: SZ95 cells, desaturation index, lowest dose used 4.6 nM.
Setting [6] is: SZ95 cells, compared to reference compound, read-out: SLA Amax.

As for `CC(C)CS(=O)(=O)c1ccccc1Oc1ccc(-c2noc(CN3C(=O)N(CCN4CCOCC4)C4(CCN(C(=O)CCN(C)C)CC4)C3=O)n2)cc1C(F)(F)F` [Compound 32, 8-(3-(dimethylamino)propanoyl)-3-((3-(4-(2-(isobutylsulfonyl)phenoxy)-3-(trifluoromethyl)phenyl)-1,2,4-oxadiazol-5-yl)methyl)-1-(2-morpholinoethyl)-1,3,8-triazaspiro[4.5]decane-2,4-dione], the Emax was 84.9% in the test on SCD1 (setting [1]), 80.7% with SCD1 (setting [3]), 100% with SZ95 sebocytes (setting [4]) and 96.2% in the test with SZ95 sebocytes (setting [6]). Further, the results for the EC50 in the test with SCD1 (setting [2]) and in the test on SZ95 sebocytes (setting [5]) were 2.42 nM and not above 4.6 nM, respectively.
`CC1(C)C(=O)N(Cc2nc(-c3ccc(OCCC(F)(F)F)c(C(F)(F)F)c3)no2)C(=O)N1CCN1CCOCC1` [Compound 66, 5,5-dimethyl-1-(2-morpholinoethyl)-3-((3-(3-(trifluoromethyl)-4-(3,3,3-trifluoropropoxy)phenyl)-1,2,4-oxadiazol-5-yl)methyl)imidazolidine-2,4-dione]: the Emax in the test on SCD1 (setting [1]) came to 82.3%; in the test with SCD1 (setting [3]) it was 78.2%; in the test on SZ95 sebocytes (setting [4]), 99%; in the test on SZ95 sebocytes (setting [6]), 95.1%. The EC50 in the test with SCD1 (setting [2]) was determined as 187 nM; in the test on SZ95 sebocytes (setting [5]), 21.1 nM.
In the case of `CC(C)CS(=O)(=O)c1ccccc1Oc1ccc(-c2noc(CN3C(=O)N(CCN4CCOCC4)C4(CCCCC4)C3=O)n2)cc1C(F)(F)F` [Compound 3, 3-((3-(4-(2-(isobutylsulfonyl)phenoxy)-3-(trifluoromethyl)phenyl)-1,2,4-oxadiazol-5-yl)methyl)-1-(2-morpholinoethyl)-1,3-diazaspiro[4.5]decane-2,4-dione], the Emax was 78.5% in the test on SCD1 (setting [1]), 74.7% in the test on SCD1 (setting [3]), 117% with SZ95 sebocytes (setting [4]) and 112% with SZ95 sebocytes (setting [6]). Moreover, the EC50 with SCD1 (setting [2]) is 1.24 nM; in the test with SZ95 sebocytes (setting [5]) it was not above 4.6 nM.
Take `CC(COc1ccc(-c2noc(CN3C(=O)N(CCC4CCOCC4)C4(CCN(C5CCC5)CC4)C3=O)n2)cc1C(F)(F)F)(C(F)(F)F)C(F)(F)F` [Compound 63, 8-cyclobutyl-1-(2-(tetrahydro-2H-pyran-4-yl)ethyl)-3-((3-(4-(3,3,3-trifluoro-2-methyl-2-(trifluoromethyl)propoxy)-3-(trifluoromethyl)phenyl)-1,2,4-oxadiazol-5-yl)methyl)-1,3,8-triazaspiro[4.5]decane-2,4-dione]: the Emax in the test on SCD1 (read-out: HiBit Amax) is 74.6%; in the test on SCD1 (read-out: HiBit Normalized Amax) it was 78.4%; in the test on SZ95 sebocytes (read-out: SLA Amax), 72.2%; in the test on SZ95 sebocytes (read-out: SLA Normalized Amax), 75.2%. Also, the results for the EC50 in the test with SCD1 and with SZ95 sebocytes were 0.217 nM and not above 4.6 nM, respectively.
Take `CC1(C)C(=O)N(Cc2nc(-c3ccc(Oc4cnccc4C(F)(F)F)c(C(F)(F)F)c3)no2)C(=O)N1CCN1CCOCC1` [Compound 65, 5,5-dimethyl-1-(2-morpholinoethyl)-3-((3-(3-(trifluoromethyl)-4-((4-(trifluoromethyl)pyridin-3-yl)oxy)phenyl)-1,2,4-oxadiazol-5-yl)methyl)imidazolidine-2,4-dione]: the Emax in the test with SCD1 (setting [1]) amounted to 69.8%; in the test with SCD1 (setting [3]) it was 66.4%; in the test on SZ95 sebocytes (setting [4]), 108%; in the test on SZ95 sebocytes (setting [6]) it was 104%. In addition, the figures for the EC50 in the test with SCD1 (setting [2]) and with SZ95 sebocytes (setting [5]) were 15.1 nM and not above 4.6 nM, respectively.
For `O=C1N(Cc2nc(-c3ccc(Oc4ccccc4S(=O)(=O)CC4CCCO4)c(C(F)(F)F)c3)no2)C(=O)C2(CCN(C3CCC3)CC2)N1CCN1CCOCC1` (stereo not drawn) [Compound 18, 8-cyclobutyl-1-(2-morpholinoethyl)-3-((3-(4-(2-(((tetrahydrofuran-2-yl)methyl)sulfonyl)phenoxy)-3-(trifluoromethyl)phenyl)-1,2,4-oxadiazol-5-yl)methyl)-1,3,8-triazaspiro[4.5]decane-2,4-dione], the Emax with SCD1 (setting [1]) was 139%; in the test on SCD1 (setting [3]), 132%; in the test with SZ95 sebocytes (setting [4]), 141%; in the test on SZ95 sebocytes (setting [6]), 135%. Further, the EC50 in the test on SCD1 (setting [2]) was 0.133 nM; with SZ95 sebocytes (setting [5]), not above 4.6 nM.
As to `CC(COc1ccc(-c2noc(CN3C(=O)N(CCN4CCOCC4)C4(CCN(C5CCC5)CC4)C3=O)n2)cc1C(F)(F)F)(C(F)(F)F)C(F)(F)F` [Compound 14, 8-cyclobutyl-1-(2-morpholinoethyl)-3-((3-(4-(3,3,3-trifluoro-2-methyl-2-(trifluoromethyl)propoxy)-3-(trifluoromethyl)phenyl)-1,2,4-oxadiazol-5-yl)methyl)-1,3,8-triazaspiro[4.5]decane-2,4-dione], the Emax in the test with SCD1 (setting [1]) is 91%; in the test with SCD1 (setting [3]), 86.5%; in the test with SZ95 sebocytes (setting [4]), 130%; in the test with SZ95 sebocytes (setting [6]), 125%. In addition, the EC50 is 0.241 nM in the test on SCD1 (setting [2]) and not above 4.6 nM in the test with SZ95 sebocytes (setting [5]).
`CS(=O)(=O)c1ccccc1Oc1ccc(-c2noc(CN3C(=O)N(CCN4CCOCC4)C4(CCN(C5CCC5)CC4)C3=O)n2)cc1C(F)(F)F` [Compound 15, 8-cyclobutyl-3-((3-(4-(2-(methylsulfonyl)phenoxy)-3-(trifluoromethyl)phenyl)-1,2,4-oxadiazol-5-yl)methyl)-1-(2-morpholinoethyl)-1,3,8-triazaspiro[4.5]decane-2,4-dione]: the Emax in the test with SCD1 (setting [1]) stood at 88.3%; in the test with SCD1 (setting [3]) it was 84%; with SZ95 sebocytes (setting [4]), 121%; in the test with SZ95 sebocytes (setting [6]), 116%. Further, the EC50 is 0.101 nM in the test with SCD1 (setting [2]) and not above 4.6 nM with SZ95 sebocytes (setting [5]).
Turning to `CC(C)CS(=O)(=O)c1ccccc1Oc1ccc(-c2noc(CN3C(=O)N(CCN4CCOCC4)C4(CCN(Cc5cc(O)cc(O)c5)CC4)C3=O)n2)cc1C(F)(F)F` [Compound 21, 8-(3,5-dihydroxybenzyl)-3-((3-(4-(2-(isobutylsulfonyl)phenoxy)-3-(trifluoromethyl)phenyl)-1,2,4-oxadiazol-5-yl)methyl)-1-(2-morpholinoethyl)-1,3,8-triazaspiro[4.5]decane-2,4-dione], the Emax in the test on SCD1 (setting [1]) is 83.7%; in the test on SCD1 (setting [3]) it was 79.6%; with SZ95 sebocytes (setting [4]) it was 102%; with SZ95 sebocytes (setting [6]) it was 97.5%. For the same compound, the EC50 with SCD1 (setting [2]) was 0.241 nM; with SZ95 sebocytes (setting [5]), not above 4.6 nM.
With `COCCS(=O)(=O)c1ccccc1Oc1ccc(-c2noc(CN3C(=O)N(CCN4CCOCC4)C(C)(C)C3=O)n2)cc1C(F)(F)F` [Compound 58, 3-((3-(4-(2-((2-methoxyethyl)sulfonyl)phenoxy)-3-(trifluoromethyl)phenyl)-1,2,4-oxadiazol-5-yl)methyl)-5,5-dimethyl-1-(2-morpholinoethyl)imidazolidine-2,4-dione], the Emax in the test with SCD1 (setting [1]) came out at 107%; in the test on SCD1 (setting [3]), 102%; with SZ95 sebocytes (setting [4]), 167%; with SZ95 sebocytes (setting [6]), 161%. In addition, the values for the EC50 with SCD1 (setting [2]) and in the test with SZ95 sebocytes (setting [5]) were 0.281 nM and not above 4.6 nM, respectively.
On to `O=C1N(Cc2nc(-c3ccc(Oc4ccccc4C(F)(F)F)c(C(F)(F)F)c3)no2)C(=O)C2(CCN(C3CCC3)CC2)N1CCC1CCOCC1` [Compound 12, 8-cyclobutyl-1-(2-(tetrahydro-2H-pyran-4-yl)ethyl)-3-((3-(3-(trifluoromethyl)-4-(2-(trifluoromethyl)phenoxy)phenyl)-1,2,4-oxadiazol-5-yl)methyl)-1,3,8-triazaspiro[4.5]decane-2,4-dione], for which the Emax came out at 81.9% in the test with SCD1 (setting [1]), 77.9% with SCD1 (setting [3]), 130% in the test on SZ95 sebocytes (setting [4]) and 125% in the test on SZ95 sebocytes (setting [6]). For the same compound, the EC50 is 0.081 nM with SCD1 (setting [2]) and not above 4.6 nM in the test on SZ95 sebocytes (setting [5]).
